The source of these data is patent publication US20260374773A1, “MULTI-CYCLIC IRAK AND FLT3 INHIBITING COMPOUNDS AND USES THEREOF” (CHILDREN'S HOSPITAL MEDICAL CENTER, priority 2022, published 2026).

pKd: −log10 of the molar value. Where only a bound is given, the exact number is not on record here.

One experiment has as its target T1, FLT3 N841I (Homo sapiens, UniProt P36888, N841I).
T1 sequence (P36888 27-993 N841I): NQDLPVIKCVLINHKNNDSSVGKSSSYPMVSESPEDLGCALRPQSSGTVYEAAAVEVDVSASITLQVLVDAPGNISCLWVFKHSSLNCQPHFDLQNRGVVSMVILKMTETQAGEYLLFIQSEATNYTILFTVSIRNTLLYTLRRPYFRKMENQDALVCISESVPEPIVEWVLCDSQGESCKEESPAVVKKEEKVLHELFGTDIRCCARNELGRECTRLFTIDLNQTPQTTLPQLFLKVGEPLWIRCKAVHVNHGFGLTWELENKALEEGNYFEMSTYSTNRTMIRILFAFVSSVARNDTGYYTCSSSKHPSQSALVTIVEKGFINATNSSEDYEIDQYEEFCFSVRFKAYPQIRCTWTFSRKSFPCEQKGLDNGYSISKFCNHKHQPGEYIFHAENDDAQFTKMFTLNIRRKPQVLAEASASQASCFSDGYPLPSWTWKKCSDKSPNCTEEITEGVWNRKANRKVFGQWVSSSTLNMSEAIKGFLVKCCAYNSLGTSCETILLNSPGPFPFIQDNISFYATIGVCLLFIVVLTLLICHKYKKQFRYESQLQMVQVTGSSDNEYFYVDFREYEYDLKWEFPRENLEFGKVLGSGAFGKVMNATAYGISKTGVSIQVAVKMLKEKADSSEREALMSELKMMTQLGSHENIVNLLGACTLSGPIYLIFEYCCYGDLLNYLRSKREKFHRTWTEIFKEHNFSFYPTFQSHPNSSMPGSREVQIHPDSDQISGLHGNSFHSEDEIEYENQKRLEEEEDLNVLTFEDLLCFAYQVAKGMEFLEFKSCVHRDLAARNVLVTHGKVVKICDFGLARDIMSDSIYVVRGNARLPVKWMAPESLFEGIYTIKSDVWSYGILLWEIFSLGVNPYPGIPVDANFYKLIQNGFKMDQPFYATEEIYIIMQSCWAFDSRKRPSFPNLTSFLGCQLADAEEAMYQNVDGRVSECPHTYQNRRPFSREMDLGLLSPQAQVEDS
The experiment can be described thus: DiscoverX KINOMEscan active site-directed competition binding, FLT3 N841I. Particulars: Table 13; no ATP.
Text: (§1) Kinase binding data were obtained for various exemplary compounds prepared according to Examples 1-8 using the DiscoverX KINOMEscan® active site-directed competition binding site-directed assay protocol described below. […] As a result, the data report thermodynamic interaction affinities (Kd values), rather than IC50 values that are dependent on ATP concentrations. The assay uses a DNA-tagged version of the protein kinase, and an immobilized ligand bound to a solid support. Compounds that directly or indirectly prevent kinase binding to the immobilized ligand reduce the amount of kinase captured on the solid support, which is detected using an ultra-sensitive qPCR method. Affinity constants reported from the assay have been reported to be independent of the immobilized ligand used that is coupled to the solid support (See supplemental information in Fabian, M. A. et. al., (2005) Nat. Biotechnol. 23, 329-336; Wodicka, L. M. et. al., (2010) Chem. Biol. 17, 1241-1249.)
Kinase-tagged T7 phage strains were prepared in an E. coli host derived from the BL21 strain. E. coli were grown to log-phase and infected with T7 phage and incubated with shaking at 32 °C until lysis. The lysates were centrifuged and filtered to remove cell debris. The remaining kinases were produced in HEK-293 cells and subsequently tagged with DNA for qPCR detection. Streptavidin-coated magnetic beads were treated with biotinylated small molecule ligands for 30 minutes at room temperature to generate affinity resins for kinase assays. The liganded beads were blocked with excess biotin and washed with blocking buffer (SeaBlock (Pierce), 1% BSA, 0.05% Tween 20, 1 mM DTT) to remove unbound ligand and to reduce non-specific binding. […] Test compounds were prepared as 111x stocks in 100% DMSO. Kds were determined using an 11-point 3-fold compound dilution series with three DMSO control points. All compounds for Kd measurements are distributed by acoustic transfer (non-contact dispensing) in 100% DMSO. The compounds were then diluted directly into the assays such that the final concentration of DMSO was 0.9%. All reactions were performed in polypropylene 384-well plates. Each was a final volume of 0.02 mL. The assay plates were incubated at room temperature with shaking for 1 hour and the affinity beads were washed with wash buffer (1×PBS, 0.05% Tween 20). The beads were then re-suspended in elution buffer (1×PBS, 0.05% Tween 20, 0.5 μM nonbiotinylated affinity ligand) and incubated at room temperature with shaking for 30 minutes. The kinase concentration in the eluates was measured by qPCR. Binding constants (Kds) were calculated with a standard dose-response curve using the Hill equation. The Hill Slope was set to −1. Curves were fitted using a non-linear least square fit with the Levenberg-Marquardt algorithm.
as §1, with “9-12” for “1-8”
Kinase-tagged T7 phage strains were prepared in an E. coli host derived from the BL21 strain. […]
As a reminder, the pKd is the Kd on a negative log10 scale, so that one unit is a factor of ten. `COc1cn2ncc(-c3nc(N[C@H]4CNCC[C@@H]4F)c(C#N)cc3F)c2nc1C1CC1` [Compound 7, 6-(5-cyclopropyl-6-methoxypyrazolo[1,5-a]pyrimidin-3-yl)-5-fluoro-2-(((3S,4S)-4-fluoropiperidin-3-yl)amino)nicotinonitrile] showed a pKd of over 9.77.

As to `COc1cn2ncc(-c3nc(N[C@H]4CNCC[C@@H]4F)c(C#N)cc3F)c2nc1C(C)(C)O` [Compound 10, 5-fluoro-2-(((3S,4S)-4-fluoropiperidin-3-yl)amino)-6-(5-(2-hydroxypropan-2-yl)-6-methoxypyrazolo[1,5-a]pyrimidin-3-yl)nicotinonitrile], the pKd was 9.32.

`COc1cn2ncc(-c3nc(N[C@H]4CNCC[C@@H]4F)c(F)cc3F)c2nc1C(C)(C)O` [Compound 13, 2-(3-(3,5-difluoro-6-(((3S,4S)-4-fluoropiperidin-3-yl)amino)pyridin-2-yl)-6-methoxypyrazolo[1,5-a]pyrimidin-5-yl)propan-2-ol] gave a pKd of 9.10.

The experiment is the same for the next values; noted with them: Table 19; no ATP.
`COc1cn2ncc(-c3nc(N[C@H]4CNCC[C@@H]4F)ncc3F)c2nc1C(C)(C)O` [Compound 6a, 2-(3-(5-fluoro-2-(((3S,4S)-4-fluoropiperidin-3-yl)amino)pyrimidin-4-yl)-6-methoxypyrazolo[1,5-a]pyrimidin-5-yl)propan-2-ol] gave a pKd of 9.15.

`COc1cn2ncc(-c3cncc(N[C@H]4CNCC[C@@H]4F)n3)c2nc1C1CC1` [Compound 12a, 6-(5-cyclopropyl-6-methoxypyrazolo[1,5-a]pyrimidin-3-yl)-N-((3S,4S)-4-fluoropiperidin-3-yl)pyrazin-2-amine] showed a pKd of 9.57.

The compound `COc1cn2ncc(-c3nc(N[C@@H]4CCCNC4)ncc3F)c2nc1C1CC1` [Compound 14a, (R)-4-(5-cyclopropyl-6-methoxypyrazolo[1,5-a]pyrimidin-3-yl)-5-fluoro-N-(piperidin-3-yl)pyrimidin-2-amine] gave a pKd of over 9.77.

In turn, `COc1cn2ncc(-c3nc(N[C@H]4CNCC[C@@H]4F)ncc3F)c2nc1C1CC1` [Compound 15a, 4-(5-cyclopropyl-6-methoxypyrazolo[1,5-a]pyrimidin-3-yl)-5-fluoro-N-((3S,4S)-4-fluoropiperidin-3-yl)pyrimidin-2-amine] had a pKd of over 9.77.

In the case of `COc1cn2ncc(-c3ccnc(N[C@H]4CNCC[C@@H]4F)n3)c2nc1C1CC1` [Compound 7a, 4-(5-cyclopropyl-6-methoxypyrazolo[1,5-a]pyrimidin-3-yl)-N-((3S,4S)-4-fluoropiperidin-3-yl)pyrimidin-2-amine], the pKd is 9.21.
